According to patent publication US8772499B2, “TRPV3 modulators” (AbbVie Inc., priority 2011, dated 2014):
Where two headings read alike, the source gives them in different places.

Legend:
[1] = target: T1, human TRPV3 (Homo sapiens, UniProt Q8NET8); assay: In vitro antagonism of recombinant human TRPV3 activation (FLIPR Tetra calcium assay); format: cell-based; conditions: HEK293 cells stably expressing human TRPV3, agonist 2-APB at 80 μM
T1 construct: expressed in transfected cells
T1 sequence (Q8NET8 1-790): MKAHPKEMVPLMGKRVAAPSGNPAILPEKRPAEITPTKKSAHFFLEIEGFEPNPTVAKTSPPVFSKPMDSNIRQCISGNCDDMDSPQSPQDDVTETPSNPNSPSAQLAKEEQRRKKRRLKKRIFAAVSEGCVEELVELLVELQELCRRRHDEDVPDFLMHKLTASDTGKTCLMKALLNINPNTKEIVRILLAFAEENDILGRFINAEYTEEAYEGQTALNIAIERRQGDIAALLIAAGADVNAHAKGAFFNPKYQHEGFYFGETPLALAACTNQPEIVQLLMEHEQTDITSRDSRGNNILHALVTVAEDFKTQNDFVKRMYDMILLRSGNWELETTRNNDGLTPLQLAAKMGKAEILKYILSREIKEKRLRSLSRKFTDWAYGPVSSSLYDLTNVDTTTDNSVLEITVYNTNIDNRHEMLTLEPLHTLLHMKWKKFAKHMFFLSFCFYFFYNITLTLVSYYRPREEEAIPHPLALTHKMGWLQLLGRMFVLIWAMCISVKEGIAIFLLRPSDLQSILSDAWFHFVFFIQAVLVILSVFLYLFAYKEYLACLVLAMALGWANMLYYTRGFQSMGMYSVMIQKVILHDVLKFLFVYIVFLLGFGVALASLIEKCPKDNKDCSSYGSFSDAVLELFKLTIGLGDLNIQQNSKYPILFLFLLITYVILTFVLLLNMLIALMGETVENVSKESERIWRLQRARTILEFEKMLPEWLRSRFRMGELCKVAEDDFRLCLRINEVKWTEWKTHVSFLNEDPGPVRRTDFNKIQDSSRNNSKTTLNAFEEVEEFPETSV
Procedure, shortened: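 HEK293 cells stably expressing human TRPV3, loaded with Calcium-4 dye for 90–120 min, received compound in DPBS, then 80 μM 2-APB (EC80) 3 min later. Max-minus-min fluorescence expressed as % of 2-APB response without antagonist; IC50 values mostly averages of n≥2 runs.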

[2] = In vitro human microsomal stability assay; format: in vitro ADME; conditions: human, microsomes, 0.5 h, 0.5 μM, pH 7.4
Procedure, shortened: (§1)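 Metabolic stability measured in Sprague-Dawley rat or human liver microsomes at 37 °C. Reactions supplemented with NADPH.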

[3] = In vitro rat microsomal stability assay; format: in vitro ADME, rat (Sprague-Dawley); conditions: Sprague-Dawley, rat, microsomes, 0.5 h, 0.5 μM, pH 7.4
Procedure, shortened: as §1

[4] = actual measured value shown parenthetically, in most cases average of at least two runs, read-out: IC50
[5] = reported range, read-out: IC50 (range class)

SMILES | IC50 [1, 4] | IC50 [1, 5] | HUMAN MICROSOMAL STABILITY (% REMAINING AFTER 30 MINUTES) [2] | RAT MICROSOMAL STABILITY (% REMAINING AFTER 30 MINUTES) [3]
OC1CC(c2ccc(Cl)c(Cl)c2)(C(O)c2ncccn2)C1 (single isomer, unassigned) [Example 313] | > 20000 nM | > 20000 nM | 81% | >85%
OC(c1ccccn1)C1(c2ccccc2F)CCC1 (stereo not shown) [Example 1, [1-(2-fluorophenyl)cyclobutyl](pyridin-2-yl)methanol] | 1500 nM | – | 0.38% | 0.48%
OC(c1ccccn1)C1(c2cccc(F)c2)CCC1 (stereo not shown) [Example 2, [1-(3-fluorophenyl)cyclobutyl](pyridin-2-yl)methanol] | 320 nM | – | 17% | 0.64%
OC(c1ccccn1)C1(c2ccc(F)cc2)CCC1 (stereo not shown) [Example 3, [1-(4-fluorophenyl)cyclobutyl](pyridin-2-yl)methanol] | 790 nM | – | 28% | 3.8%
OC(c1ccccn1)C1(c2ccc(F)c(F)c2)CCC1 (stereo not shown) [Example 4, [1-(3,4-difluorophenyl)cyclobutyl](pyridin-2-yl)methanol] | 460 nM | – | 19% | 4.2%
OC(c1ccccn1)C1(c2ccccc2C(F)(F)F)CCC1 (stereo not shown) [Example 5, pyridin-2-yl{1-[2-(trifluoromethyl)phenyl]cyclobutyl}methanol] | 5220 nM | – | 0.27% | 0.06%
OC(c1ccccn1)C1(c2cccc(C(F)(F)F)c2)CCC1 (stereo not shown) [Example 6, pyridin-2-yl{1-[3-(trifluoromethyl)phenyl]cyclobutyl}methanol] | 350 nM | – | 1.2% | 2.3%
Cc1ccccc1C1(C(O)c2ccccn2)CCC1 (stereo not shown) [Example 7, [1-(2-methylphenyl)cyclobutyl](pyridin-2-yl)methanol] | 17500 nM | – | 0.15% | 0.32%
Cc1cccc(C2(C(O)c3ccccn3)CCC2)c1 (stereo not shown) [Example 8, [1-(3-methylphenyl)cyclobutyl](pyridin-2-yl)methanol] | 380 nM | – | 0.13% | 0.73%
Cc1ccc(C2(C(O)c3ccccn3)CCC2)cc1 (stereo not shown) [Example 9, [1-(4-methylphenyl)cyclobutyl](pyridin-2-yl)methanol] | 1510 nM | – | 0.12% | 0.18%
OC(c1ccccn1)C1(c2ccccc2OC(F)(F)F)CCC1 (stereo not shown) [Example 10, pyridin-2-yl{1-[2-(trifluoromethoxy)phenyl]cyclobutyl}methanol] | 1100 nM | – | 0.42% | 0.62%
OC(c1ccccn1)C1(c2cccc(OC(F)(F)F)c2)CCC1 (stereo not shown) [Example 11, pyridin-2-yl{1-[3-(trifluoromethoxy)phenyl]cyclobutyl}methanol] | 400 nM | – | 0.72% | 0.80%
OC(c1ccccn1)C1(c2ccc(OC(F)(F)F)cc2)CCC1 (stereo not shown) [Example 12, pyridin-2-yl{1-[4-(trifluoromethoxy)phenyl]cyclobutyl}methanol] | 420 nM | – | 24% | 11%
OC(c1ccccn1)C1(c2cc(C(F)(F)F)cc(C(F)(F)F)c2)CCC1 (stereo not shown) [Example 13, {1-[3,5-bis(trifluoromethyl)phenyl]cyclobutyl}(pyridin-2-yl)methanol] | 600 nM | – | 7.4% | 19%
OC(c1ccccn1)C1(c2ccc(F)c(C(F)(F)F)c2)CCC1 (stereo not shown) [Example 15, {1-[4-fluoro-3-(trifluoromethyl)phenyl]cyclobutyl}(pyridin-2-yl)methanol] | 310 nM | – | 5.6% | 1.2%
OC(c1ccccn1)C1(c2ccc(C(F)(F)F)c(F)c2)CCC1 (stereo not shown) [Example 17] | 1100 nM | – | 21% | 13%
OC(c1ccccn1)C1(c2ccccn2)CCC1 (stereo not shown) [Example 19, pyridin-2-yl(1-pyridin-2-ylcyclobutyl)methanol] | > 20000 nM | > 20000 nM | >85% | 76%
OC(c1ccccn1)C1(c2cccnc2)CCC1 (stereo not shown) [Example 20, pyridin-2-yl(1-pyridin-3-ylcyclobutyl)methanol] | > 20000 nM | > 20000 nM | 80% | 81%
OC(c1ccccn1)C1(c2ccncc2)CCC1 (stereo not shown) [Example 21, pyridin-2-yl(1-pyridin-4-ylcyclobutyl)methanol] | > 20000 nM | > 20000 nM | 71% | 52%
OC(c1ccccn1)C1(c2cccc(Oc3ccccc3)c2)CCC1 (stereo not shown) [Example 23, [1-(3-phenoxyphenyl)cyclobutyl](pyridin-2-yl)methanol] | 930 nM | – | 0.12% | 0.69%
OC(c1ccccn1)C1(c2ccc(Oc3ccccc3)cc2)CCC1 (stereo not shown) [Example 24, [1-(4-phenoxyphenyl)cyclobutyl](pyridin-2-yl)methanol] | 4700 nM | – | 20% | 17%
OC(c1ccccn1)C1(c2ccc(Cc3ccccc3)cc2)CCC1 (stereo not shown) [Example 25, [1-(4-benzylphenyl)cyclobutyl](pyridin-2-yl)methanol] | 1180 nM | – | 21% | 1.3%
O[C@H](c1ccccn1)C1(c2ccc(Cl)c(Cl)c2)CCC1 [Example 26, (S)-[1-(3,4-dichlorophenyl)cyclobutyl](pyridin-2-yl)methanol] | 310 nM | – | 6.3% | 1.0%
O[C@H](c1ccccn1)C1(c2ccc(C(F)(F)F)cc2F)CCC1 [Example 27, (S)-{1-[2-fluoro-4-(trifluoromethyl)phenyl]cyclobutyl}(pyridin-2-yl)-methanol] | 1400 nM | – | 13% | 15%
O[C@H](c1ccccn1)C1(c2ccc(C(F)(F)F)cc2)CCC1 [Example 28, (S)-pyridin-2-yl{1-[4-(trifluoromethyl)phenyl]cyclobutyl}methanol] | 440 nM | – | 12% | 13%
O[C@H](c1ccccn1)C1(c2ccc(C(F)(F)F)c(F)c2)CCC1 [Example 29, (S)-{1-[3-fluoro-4-(trifluoromethyl)phenyl]cyclobutyl}(pyridin-2-yl)-methanol] | 2540 nM | – | 5.3% | 45%
Cc1cccnc1[C@@H](O)C1(c2ccc(Cl)c(Cl)c2)CCC1 [Example 30, (S)-[1-(3,4-dichlorophenyl)cyclobutyl] (3-methylpyridin-2-yl)methanol] | 1720 nM | – | 1.5% | 0.98%
O[C@H](c1ncccn1)C1(c2ccc(Cl)c(Cl)c2)CCC1 [Example 39, (S)-[1-(3,4-dichlorophenyl)cyclobutyl](pyrimidin-2-yl)methanol] | 740 nM | – | 51% | 11%
O[C@@H](c1ncccn1)C1(c2ccc(Cl)c(Cl)c2)CCC1 [Example 40, (R)-[1-(3,4-dichlorophenyl)cyclobutyl](pyrimidin-2-yl)methanol] | 13300 nM | – | 68% | 5.6%
